Reference: article PMC8170916, “Sublingual AKBA Exerts Antidepressant Effects in the Aβ-Treated Mouse Model” (Biomolecules, 2021)

Experiments:
[1] = Plasmatic AKBA levels after sublingual or intranasal administration; type: in vivo, mice; conditions: 5 mg/kg
Experimental: AKBA (Cayman Chemical Company) was dissolved in sunflower oil, this vehicle was chosen in order to maintain a better tasting and higher density of the final solution thus reducing reflux through the digestive tract. […] Ten µL of the solution (or vehicle alone) was sublingually administered to mice. For intranasal administration, requiring more hydrophilic solution, AKBA was dissolved in DMSO and saline (1:3, v/v), and given to mice at the same final dose of 5 mg/kg. […]
[…] The pellets were then removed, and the remaining supernatants were dried on sodium sulphate anhydrous, filtered with 0.20 µm PTFE syringe filters and used for chemical analysis. The quantification of 3-O-acetyl-11-keto-β-boswellic acid (AKBA) was performed by using GC-MS/IT equipment composed of a gas chromatograph GC-7890B (Agilent Technologies, Santa Clara, CA, USA) coupled with an ion trap mass spectrometer IT-240 (Agilent Technologies).
The gas chromatograph was equipped with a VF-5 ms (Agilent J&W GC Columns) capillary column, 30 m × 0.25 mm i.d. × 0.25 µm. […]
The MS electron multiplier voltage was set at 1450 V, and an ionization time of 65,000 µs was used, running in the electron impact (EI) mode. […] These characteristic fragments were selected as a mass target to develop the MS acquisition method operating in single ion scan mode (SIS) to improve the LOD and LOQ for AKBA quantification. […]

Aβ-treated mice = assay: Splash test in Aβ-treated mice; type: in vivo; conditions: mice 7 days after icv Aβ 4 µM
[2] = design: method as in PMID 21553931; conditions: cited from earlier work
5-LOX = system: 5-LOX; design: method as in PMID 9760176; conditions: cited from earlier work
[3] = sublingual AKBA 5 mg/kg 30 min before testing, Aβ vs SHAM, Aβ+AKBA vs Aβ

Plasmatic AUCs, sublingual vs intranasal [1]: higher after sublingual administration
SMILES: CC(=O)O[C@@H]1CC[C@@]2(C)[C@@H](CC[C@]3(C)[C@@H]2C(=O)C=C2[C@@H]4[C@@H](C)[C@H](C)CC[C@]4(C)CC[C@]23C)[C@@]1(C)C(=O)O [AKBA, 3-O-acetyl-11-keto-β-boswellic acid]
Plasmatic AKBA levels ([1]; sublingual vs intranasal, 5, 15 and 30 min after administration): significantly higher after sublingual administration compared to intranasal | Depressive-like behavior induced by Aβ in the splash test, 5 min after AKBA (Aβ-treated mice; sublingual AKBA 5 mg/kg 5 min before testing): not reverted | Latency to leak in the splash test (Aβ-treated mice; [3]): such an outcome was reverted | Time spent performing self-care in the splash test (Aβ-treated mice; [3]): prevented such an effect | Oral bioavailability [2]: low oral bioavailability | 5-LOX inhibition (5-LOX): 5-LOX inhibitor
